According to ChEMBL document CHEMBL5376007, “Discovery of Novel PD-L1 Inhibitors That Induce the Dimerization, Internalization, and Degradation of PD-L1 Based on the Fragment Coupling Strategy” (J Med Chem, 2023):
Activity calls are given as the source filed them. No cut-off for these calls is given here.

Experiments:
[1] = molecular target: Programmed cell death protein 1/Programmed cell death 1 ligand 1 (Homo sapiens, UniProt Q9NZQ7); test: Inhibition of interaction of Fc(IgG1)-Avi)-(Biotin)-fused human PDL1 (19 to 239 residues)/Eu-labeled human PD-1 (25 to 167 residues) expressed in HEK293 cells pretreated with PDL1 for 15 mins followed by PD-1 addition and measured after 90 mins by TR-FRET assay; assay type: cell-based
Chain of Programmed cell death protein 1/Programmed cell death 1 ligand 1 (Q15116 whole entry, the tested form may be a part): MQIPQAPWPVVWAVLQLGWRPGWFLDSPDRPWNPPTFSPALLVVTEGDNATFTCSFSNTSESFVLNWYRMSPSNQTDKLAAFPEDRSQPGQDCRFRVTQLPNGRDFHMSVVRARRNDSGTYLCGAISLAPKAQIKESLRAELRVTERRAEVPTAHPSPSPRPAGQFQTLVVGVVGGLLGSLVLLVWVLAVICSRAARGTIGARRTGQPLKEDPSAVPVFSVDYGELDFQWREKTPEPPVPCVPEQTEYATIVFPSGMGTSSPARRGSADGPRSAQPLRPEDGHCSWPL
Chain of Programmed cell death protein 1/Programmed cell death 1 ligand 1 (Q9NZQ7 whole entry, the tested form may be a part): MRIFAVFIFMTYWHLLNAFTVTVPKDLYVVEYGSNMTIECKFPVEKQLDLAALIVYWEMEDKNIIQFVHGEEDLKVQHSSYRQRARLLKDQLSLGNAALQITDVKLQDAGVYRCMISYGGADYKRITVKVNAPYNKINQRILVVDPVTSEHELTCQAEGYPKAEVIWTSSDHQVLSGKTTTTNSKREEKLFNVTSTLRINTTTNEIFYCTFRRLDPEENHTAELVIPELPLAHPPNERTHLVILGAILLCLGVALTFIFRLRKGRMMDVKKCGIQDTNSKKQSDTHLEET

L02 = test: Cytotoxicity against human L02 cells assessed as cell viability at 0.625 to 10 uM incubated for 24 hrs by CCK8 assay; assay type: toxicity, cell-based; details: l02, 24 h, dose 0.625-10 µM
CT26 [2] = test: Antitumor immunity against mouse CT26 cells xenografted in BALB/c mouse assessed as increase in infiltration of CD8+ cells in tumor administered ip qd for 2 weeks by immunohistochemical staining based analysis; assay type: functional, organism-based; details: dose 10-20 mg/kg
[3] = molecular target: T1, Programmed cell death 1 ligand 1 (Homo sapiens, UniProt Q9NZQ7); test: Inhibition of PDL1 in human RKO cells assessed as […] PDL1 internalization into cytosol at 2 uM by immunofluorescence assay; assay type: subcellular; details: time 2-6 hrs, TDE = time-dependent effect
T1 sequence (Q9NZQ7 whole entry): as the sequence (Q9NZQ7 whole entry, the tested form may be a part) above

[4] = Half life in Sprague-Dawley rat at 5 mg/kg, iv by LC-MS/MS analysis; assay type: ADME, organism-based; details: in vivo
[5] = AUC(0 to t) in Sprague-Dawley rat at 25 mg/kg, po by LC-MS/MS analysis; assay type: ADME, organism-based; set-up: dose 25 mg/kg, route po; details: in vivo
[6] = Toxicity against BALB/c mouse xenografted with mouse CT26 cells assessed as body weight loss at 10 to 20 mg/kg, ip qd for 2 weeks; assay type: organism-based; details: in vivo, 336 h, dose 10-20 mg/kg
[7] = molecular target: T1, Programmed cell death 1 ligand 1; test: Inhibition of PDL1 (unknown origin) assessed as induction of PDL1 dimerization at protein to compound concentration ratio of 1:2 incubated for overnight by SEC analysis
MDA-MB-231 = test: Antitumor activity against human MDA-MB-231 cells cocultured with CD3/CD28/CD2 T cell activator stimulated human PBMC cells assessed as increase in tumor cell viability incubated for 12 hrs by LDH assay; details: MDA-MB-231, 12 h
CT26 [8] = test: Antitumor activity against mouse CT26 cells xenografted in BALB/c mouse assessed as decrease in tumor weight at 10 mg/kg, ip qd for 2 weeks; assay type: functional; details: CT26, 336 h
[9] = Cmax in Sprague-Dawley rat at 25 mg/kg, po by LC-MS/MS analysis; assay type: ADME, organism-based; set-up: dose 25 mg/kg, route po; details: in vivo
CT26 [10] = test: In vivo inhibition of PDL1 in BALB/c mouse xenografted with mouse CT26 cells assessed as induction of PDL1 degradation by measuring decrease in PDL1 protein expression in tumor at 10 to 20 mg/kg, ip qd for 2 weeks by immunohistochemical staining based analysis; assay type: functional, organism-based; details: dose 10-20 mg/kg
[11] = Toxicity against BALB/c mouse xenografted with mouse CT26 cells assessed as mortality at 10 to 20 mg/kg, ip qd for 2 weeks; assay type: organism-based; details: in vivo, 336 h, dose 10-20 mg/kg
[12] = molecular target: T1, Programmed cell death 1 ligand 1; test: Inhibition of PDL1 in human RKO cells assessed as […] PDL1 internalization into cytosol incubated for 12 hrs by immunofluorescence assay; assay type: subcellular; details: dose 0.5-2 µM
CT26 [13] = test: Antitumor activity against mouse CT26 cells xenografted in BALB/c mouse assessed as decrease in tumor weight at 20 mg/kg, ip qd for 2 weeks; assay type: functional; details: CT26, 336 h
[14] = Tmax in Sprague-Dawley rat at 5 mg/kg, iv by LC-MS/MS analysis; assay type: ADME, organism-based; details: in vivo
[15] = molecular target: Programmed cell death 1 ligand 1 (Mus musculus, UniProt Q9EP73); test: Binding affinity to RED-NHS dye labeled mouse PDL1 incubated for 10 mins away from light by microscale thermophoresis analysis
Chain of Programmed cell death 1 ligand 1 (Mus musculus, UniProt Q9EP73) (Q9EP73 whole entry): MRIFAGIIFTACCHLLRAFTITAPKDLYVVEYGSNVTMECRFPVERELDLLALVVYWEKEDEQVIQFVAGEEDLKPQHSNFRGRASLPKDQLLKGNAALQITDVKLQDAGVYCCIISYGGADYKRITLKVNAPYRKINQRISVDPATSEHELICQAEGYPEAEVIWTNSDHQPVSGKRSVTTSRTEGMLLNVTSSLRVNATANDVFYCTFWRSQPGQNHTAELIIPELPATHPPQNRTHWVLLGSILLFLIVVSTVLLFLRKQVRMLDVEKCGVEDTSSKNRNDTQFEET

[16] = molecular target: T1, Programmed cell death 1 ligand 1; test: Inhibition of human recombinant PDL1 expressed in HEK293 cells assessed as restoration of Jurkat T cell activity by measuring increase in IL-2 secretion at 2.5 uM incubated for 24 hrs in presence of PD-L1v242 by ELISA; assay type: cell-based
[17] = Tmax in Sprague-Dawley rat at 25 mg/kg, po by LC-MS/MS analysis; assay type: ADME, organism-based; details: in vivo
[18] = AUC(0 to t) in Sprague-Dawley rat at 5 mg/kg, iv by LC-MS/MS analysis; assay type: ADME, organism-based; set-up: dose 5 mg/kg, route iv; details: in vivo
[19] = molecular target: T1, Programmed cell death 1 ligand 1; test: Binding affinity to RED-NHS dye labeled human PDL1 incubated for 10 mins away from light by microscale thermophoresis analysis
[20] = Cmax in Sprague-Dawley rat at 5 mg/kg, iv by LC-MS/MS analysis; assay type: ADME, organism-based; set-up: dose 5 mg/kg, route iv; details: in vivo
[21] = Oral bioavailability in Sprague-Dawley rat at 25 mg/kg by LC-MS/MS analysis; assay type: ADME, organism-based; details: in vivo
CT26 [22] = test: Antitumor activity against mouse CT26 cells xenografted in BALB/c mouse assessed as inhibition of tumor growth administered ip qd for 2 weeks; assay type: functional, organism-based; details: dose 10-20 mg/kg
[23] = Half life in Sprague-Dawley rat at 25 mg/kg, po by LC-MS/MS analysis; assay type: ADME, organism-based; details: in vivo
[24] = molecular target: T1, Programmed cell death 1 ligand 1; test: Inhibition of human recombinant PDL1 expressed in HEK293 cells assessed as restoration of Jurkat T cell activity by measuring increase in IFNgamma secretion at 1 uM incubated for 24 hrs by ELISA; assay type: cell-based; set-up: Activity: scale not given: the % may be the effect or the level left
[25] = molecular target: T1, Programmed cell death 1 ligand 1; test: Inhibition of human recombinant PDL1 expressed in HEK293 cells assessed as restoration of Jurkat T cell activity by measuring increase in IL-2 secretion incubated for 24 hrs by ELISA; assay type: cell-based; details: dose 0.3125-2.5 µM
CT26 [26] = test: Antitumor activity against mouse CT26 cells xenografted in BALB/c mouse assessed as tumor shrinkage and reduction of tumor growth at 20 mg/kg, ip qd for 2 weeks by Hematoxylin-eosin staining based analysis; assay type: functional, organism-based
NCM460 = test: Cytotoxicity against human NCM460 cells assessed as cell viability at 0.625 to 10 uM incubated for 24 hrs by CCK8 assay; assay type: toxicity, cell-based; details: ncm460, 24 h, dose 0.625-10 µM
[27] = molecular target: T1, Programmed cell death 1 ligand 1; test: Inhibition of PDL1 in human MDA-MB-231 cells assessed as induction of PDL1 degradation at 1 to 5 uM incubated for 24 hrs by western blot analysis; assay type: cell-based; details: dose 1-5 µM
CT26 [28] = test: Antitumor activity against mouse CT26 cells xenografted in BALB/c mouse assessed as inhibition of tumor growth at 20 mg/kg, ip qd for 2 weeks; assay type: functional, organism-based
CT26 [29] = test: In vivo inhibition of PDL1 in BALB/c mouse xenografted with mouse CT26 cells assessed as induction of PDL1 degradation by measuring decrease in PDL1 protein expression in tumor at 20 mg/kg, ip qd for 2 weeks by immunohistochemical staining based analysis; assay type: functional, organism-based
CT26 [30] = test: Antitumor immunity against mouse CT26 cells xenografted in BALB/c mouse assessed as increase in infiltration of CD8+ cells in tumor at 20 mg/kg, ip qd for 2 weeks by immunohistochemical staining based analysis; assay type: functional, organism-based

## COc1nc(O[C@H]2CCc3c(-c4cccc(C(=O)Nc5ccc(CNCCNC(C)=O)c(F)n5)c4Cl)cccc32)c(Cl)cc1CNCCNC(C)=O
[1]
  IC50: 15.6 nM

## COc1nc(O[C@H]2CCc3c(-c4cccc(C(=O)Nc5ccc(CNC[C@@H]6CCC(=O)N6)cn5)c4Cl)cccc32)c(Cl)cc1CNC[C@@H]1CCC(=O)N1
L02
  Activity: Non-Toxic
CT26 [2]
  Activity: Dose-Dependent Effect
[3]
  inhibition: Tde
[4]
  half-life: 5.3 h
[5]
  AUC(0-t): 73.1 ng·h/mL
[6]
  Activity: Non-Toxic
[7]
  inhibition: Active
MDA-MB-231
  EC50: ~800 nM
CT26 [8]
  inhibition in vivo at 10 mg/kg: 37%
[9]
  Cmax: 22.6 ng/mL
CT26 [10]
  inhibition: Active
[11]
  Activity: Non-Toxic
[12]
  inhibition: Dose-Dependent Effect
CT26 [13]
  inhibition in vivo at 20 mg/kg: 51%
[14]
  Tmax: 1.8 min
[15]
  Kd: 790 nM
[16]
  inhibition: Active
[17]
  Tmax: 0.3 h
[18]
  AUC(0-t): 890 ng·h/mL
[19]
  Kd: 24 nM
[20]
  Cmax: 2370 ng/mL
[21]
  bioavailability: 1.6%
CT26 [22]
  Activity: Dose-Dependent Effect
[23]
  half-life: 5.8 h
[1]
  IC50: 1.8 nM
[24]
  Activity: 80%
[25]
  inhibition: Dose-Dependent Effect
CT26 [26]
  Activity: Active
NCM460
  Activity: Non-Toxic
[27]
  inhibition: Active

## Cc1c(-c2nnc(Nc3cccc(CN4CC[C@@H](O)C4)c3)o2)cccc1-c1cccc(-c2nnc(Nc3cccc(CN4CC[C@@H](O)C4)c3)o2)c1C
[1]
  IC50: 30.9 nM
[24]
  inhibition: Active

## COc1nc(O[C@H]2CCc3c(-c4cccc(C(=O)Nc5ccc(CN6CCC7(CC6)CNC(=O)C7)cn5)c4Cl)cccc32)c(Cl)cc1CN1CCC2(CC1)CNC(=O)C2
[1]
  IC50: 17.2 nM

## Cc1c(Nc2nccc3cc(CN4CC[C@@H](O)C4)cnc23)cccc1-c1cccc(-c2nc3cc(CN4CC[C@@H](C(=O)O)C4)cc(C#N)c3o2)c1C
CT26 [28]
  Activity: Active
CT26 [29]
  inhibition: inactive
CT26 [30]
  Activity: Active

## COc1nc(O[C@H]2CCc3c(-c4cccc(C(=O)Nc5ccc(CNCCN(C)C)cn5)c4Cl)cccc32)c(Cl)cc1CNCCN(C)C
[1]
  IC50: 4.2 nM

## Cc1c(-c2nnc(Nc3ccc(CN4CC[C@@H](O)C4)cc3)o2)cccc1-c1cccc(-c2nnc(Nc3cccc(CN4CC[C@@H](O)C4)c3)o2)c1C
[1]
  IC50: 1180 nM

## Cc1c(-c2ccc(CNCCO)cc2)cccc1-c1cccc(-c2nnc(Nc3cccc(CNCCO)c3)o2)c1C
[1]
  IC50: 37.2 nM

## COc1nc(O[C@H]2CCc3c(-c4cccc(C(=O)Nc5ccc(CNCCO)cn5)c4Cl)cccc32)c(Cl)cc1CNCCO
[1]
  IC50: 4.3 nM

## CC(=O)NCCNCc1ccc(Nc2nnc(-c3cccc(-c4cccc(-c5nnc(Nc6cccc(CNCCNC(C)=O)c6)o5)c4C)c3C)o2)cc1
[1]
  IC50: 893 nM

## CC(=O)NCCNCc1ccc(NC(=O)c2cccc(-c3cccc(-c4nnc(Nc5cccc(CNCCO)c5)o4)c3C)c2C)nc1
[1]
  IC50: 42 nM

## Cc1c(C(=O)Nc2ccc(CNCCO)cc2)cccc1-c1cccc(-c2nnc(Nc3cccc(CNCCO)c3)o2)c1C
[1]
  IC50: 127 nM

## Cc1c(-c2nnc(Nc3cccc(CNCCO)c3)o2)cccc1-c1cccc(C(=O)Nc2ccc(CNCCO)cn2)c1Cl
[1]
  IC50: 8.2 nM

## COc1nc(O[C@H]2CCc3c(-c4cccc(C(=O)Nc5ccc(CNCCNC(C)=O)c(C(F)(F)F)n5)c4Cl)cccc32)c(Cl)cc1CNCCNC(C)=O
[1]
  IC50: 18.8 nM

## COc1nc(NC(=O)c2cccc(-c3cccc4c3CC[C@@H]4Oc3nc(OC)c(CNCCO)cc3Cl)c2Cl)ccc1CNCCO
[1]
  IC50: 18.2 nM
